{
  "source": "patent US20240352145A1",
  "about": "“EFFICACY OF ANTI-TROP-2-SN-38 ANTIBODY DRUG CONJUGATES FOR THERAPY OF TUMORS RELAPSED/REFRACTORY TO CHECKPOINT INHIBITORS” (Immunomedics, Inc., priority 2016, published 2024)",
  "system": "TNBC",
  "test": "Phase I/II, TNBC cohort",
  "assay_type": "in vivo, human",
  "source_text": "Previous treatments included cyclophosphamide, doxorubicin, carboplatin, gemcitabine, capecitabine, eribulin, cisplatinum, anastrozole, vinorelbine, bevacizumab and tamoxifen.",
  "data": [
    {"substance": "IMMU-132", "values": [
      {"measurement": "confirmed complete responses (CR), patients", "setting": "10 mg/kg", "value": 2},
      {"measurement": "partial responses (PR), patients", "setting": "10 mg/kg", "value": 13},
      {"measurement": "stable disease (SD), patients", "setting": "10 mg/kg", "value": 25},
      {"measurement": "objective response rate", "setting": "15/52", "value": 29, "unit": "%"},
      {"measurement": "favorable response rate (CR plus PR plus SD)", "setting": "in vivo", "value": 71, "unit": "%"},
      {"measurement": "median time to progression", "setting": "in vivo", "value": 9.4, "unit": "months"}
    ]}
  ]
}
